# Legend:
# Type in all cases: in vivo
# Lettuce = test: Growth test, Lettuce; details: 30 μM, 6 days
# Description: Lettuce was cultured in a plate vertically set and using ½ MS medium containing 1.5% sucrose, 0.8% agar and KOK1101 (30 μM) under continuous white light at 25° C. for 6 days.
# Arabidopsis = test: Growth recovery test with IAA, Arabidopsis; details: 8 days
# Description: Arabidopsis was cultured in a plate vertically set and using ½ MS medium containing 1.5% sucrose, 0.8% agar (0.6% Gelrite in the case of KOK1169), the compound of the present invention and IAA under continuous white light at 22° C. for 8 days. […] In the test, KOK1101 (30 μM), KOK1160 (30 μM), KOK1165 (30 μM), and KOK1169 (100 μM) were studied.
# Tobacco = test: Growth test, Tobacco; details: compound 100 μM, 7 days after transfer
# Description: Tobacco was cultured in a plate vertically set and using ½ MS medium containing 1.5% sucrose and 0.8% agar under continuous white light at 25° C. for 7 days. Thereafter, tobacco was transferred to a plate vertically set and using ½ MS medium containing 1.5% sucrose, 0.8% agar and the compound of the present invention (100 μM) and cultured under continuous white light at 25° C. for 7 days.
# [1] = test system: Physcomitrella patens subsp. patens; test: Growth test, Physcomitrella patens subsp. patens; details: 100 μM, 7th day after transfer, vs DMSO control
# Tomato (Momotaro) = test: Growth test, Tomato; details: 100 μM, 6th day after transfer, vs DMSO control
# Rice (Nipponbare) = test: Growth test, Rice; details: 50 μM, 6th day after transfer, vs DMSO control
# [2] = compound 100 μM + IAA 10 nM, 0.6% Gelrite
structure (smiles),measurement,setting,value
COC(=O)[C@H](Cc1ccccc1)ON1C(=O)c2ccccc2C1=O [KOK 1101],growth of the aerial part,Lettuce,Apparent growth inhibition
same,main root elongation (underground part),Lettuce,promotion
same,root hair formation (underground part),Lettuce,inhibition
same,"main root elongation, recovery by simultaneous application with IAA",Arabidopsis; compound 30 μM + IAA 10 nM,recovered
same,"growth of an aerial part, recovery by simultaneous application with IAA",Arabidopsis; compound 30 μM + IAA 100 nM,recovered
NO[C@@H](Cc1ccc2ccccc2c1)C(=O)O [KOK 1169],"growth of an aerial part, recovery by simultaneous application with IAA",Arabidopsis; [2],recovered
same,"main root elongation, recovery by simultaneous application with IAA",Arabidopsis; [2],recovered
NO[C@@H](Cc1cccc2ccccc12)C(=O)O [KOK 1167],Note (morphology),Tobacco,Auxin-excess like morphology
COC(=O)[C@H](Cc1ccc2ccccc2c1)ON [KOK 1168],differentiation into forage,[1],inhibited
same,growth of protonemata,[1],remarkably inhibited
same,growth of seedling,Tomato (Momotaro),remarkably inhibited
same,growth of seedling,Rice (Nipponbare),remarkably inhibited
NOC(Cc1cccc(Cl)c1)C(=O)O (centres unmarked) [KOK 1187],Note (morphology),Tobacco,Auxin-excess like morphology
COC(=O)[C@H](Cc1cccc2ccccc12)ON1C(=O)c2ccccc2C1=O [KOK 1160],"growth of an aerial part, recovery by simultaneous application with IAA",Arabidopsis; compound 30 μM + IAA 10 nM,recovered
same,"main root elongation, recovery by simultaneous application with IAA",Arabidopsis; compound 30 μM + IAA 10 nM,recovered
COC(=O)[C@H](Cc1ccc2ccccc2c1)ON1C(=O)c2ccccc2C1=O [KOK 1165],"growth of an aerial part, recovery by simultaneous application with IAA",Arabidopsis; compound 30 μM + IAA 10 nM,recovered
same,"main root elongation, recovery by simultaneous application with IAA",Arabidopsis; compound 30 μM + IAA 10 nM,recovered

# From patent US9259000B2, “Auxin biosynthesis inhibitor” (Riken, priority 2011, dated 2016)
